Laboratory results published in patent US5770593A, “Method of determining a pharmaceutical combination preparations for use in anti-neoplastic therapy” (Boehringer Mannheim GmbH, priority 1988, dated 1998).
Like-named read-outs stand apart in the source and are kept apart here.

Key:
[1] = tested on: Walker carcinoma cells; assay: Inhibition of multiplication of Walker cells (cell proliferation), single active material or combination, Chou and Talalay analysis; assay type: cell-based, rat
Procedure: Dose-action curves for individual active materials or active material combinations were obtained by the addition of corresponding active materials to a suspension of Walker cells (10^5 cells/ml.). After an incubation time of 48 hours, the cells were counted with the help of an electronic counter (Coulter Electronics, Luton, U.K.). The multiplication of the cells (M) was calculated according to the following formula:
in which C stands for the untreated control cells, T signifies the number of treated cells and the indices 0 and t indicate the number of the cells at the time point 0 and after 48 h.
The data used for the calculation originated from at least three different experiments.

[2] = target: protein kinase C; assay: Inhibition of protein kinase C (PK-C): in vitro method, 32P incorporation into H1 histone; assay type: biochemical, rat
Procedure: b) Inhibition of protein kinase C (PK-C): in vitro method.
However, to the extracts was additionally added 1 mM phenylmethanesulphonyl chloride, 20 μg./ml. leupeptin and 2 μg./ml. aprotinin. […] 1,2-s,n-diolein. The reaction time was 10 minutes at 32° C. The enzyme reaction was stopped by the addition of 1 ml. 20% trichloroacetic acid (w/v). The protein was precipitated out on Whatman GF/F filter paper and counted with the help of a liquid scintillation counter.
Quercetin was solubilised in dimethyl sulphoxide (DMSO). For the batch mixing, the solution in DMSO was made up to a DMSO end concentration of 1%. An equivalent amount of pure DMSO was added to the control groups. The influence of quercetin on the cell multiplication was investigated by the addition of the active material in DMSO to the culture medium up to an end concentration of 0.1%. The cells were cultured in the presence of the active material for 48 hours. The control group only received pure DMSO.

[3] = tested on: Meth A-fibrosarcoma cells; assay: [3H]-Thymidine incorporation, inhibition of tumour cell proliferation; assay type: cell-based; settings: Table 2; ilmofosin alone; read-out: IC50, inhibition of tumour cell proliferation, single active material
Procedure: b) [3H]-Thymidine incorporation.
The cytostatic or cytotoxic effect of the active materials or active material combinations on Meth A-fibrosarcoma cells was investigated in vitro on the basis of the reduced incorporation of [3H]-thymidine. The cells were suspended in DMEM, 10% FCS, 50 μM 2-mercaptoethanol, 100 U/ml. penicillin and 100 μg./ml. streptomycin up to an end concentration of 5×10^4 /ml. in the absence of the active materials. The active materials were added to the cells in an end volume of 20 μl. Per concentration, 6 cultures of 0.2 ml. were used and incubated in microtitre plates in a moist atmosphere. The cultures were pulsed for 3 hours with 1 μCi […] [methyl-^3 H]-thymidine(specific activity 5 Ci/mmol). The samples were subsequently collected and washed several times. The filter plates used were dried and transferred to scintillation test tubes. The radio-active incorporation was measured by the addition of Rotiscint.
The IC50 values for a combination of ilmofosin with CDDP or doxorubicin were determined in the manner described above in Example 7b).

[4] = Rattus norvegicus, 48 h; read-out: IC50 cell proliferation in combination with cis-DDP
[5] = Table 1, 50% inhibition of the protein kinase C, read-out: inhibition of the protein kinase C IC50
[6] = combination of the inhibitor with cis-DDP, 48 hours; method of Chou and Talalay
[7] = protein kinase C enriched from Walker cells, 10 minutes at 32° C., pH 7.4, read-out: IC50, inhibition of protein kinase C (Examples 2-6)
[8] = Rattus norvegicus, 48 h, read-out: IC50 cell proliferation
[9] = Rattus norvegicus, 48 h, read-out: IC50 cell proliferation in combination with cis-DDP

Row | IC50 [1, 4] [µM] | SMILES | IC50 [2, 5] [µM] | nature of the activity [1, 6] | IC50 [2, 7] [µM] | IC50 [1, 8] [µM] | IC50 [1, 9] [µM] | further results
1 | 1.7 | CCCCCCCCCCCCCCCCCCOCC(COP(=O)([O-])OCC[N+](C)(C)C)OC (stereo not drawn) [ET-18-OCH3, 4-hydroxy-7-methoxy-N,N,N-trimethyl-3,5,9-trioxa-4-phosphaheptacosan-1-aminium 4-oxide] |  |  |  |  |  | IC50 ([1]; Rattus norvegicus; Table 1; single active material, 48 hours; read-out: IC50 cell proliferation): 5.8 µM
2 |  | N.N.[Cl][Pt][Cl] [cis-DDP, cis-diammine-dichloroplatinum (II)] | > 1000 |  |  |  |  | IC50 ([1]; Table 1; single active material, 48 hours; read-out: IC50 cell proliferation): 0.23 µM
3 | 2 | CCCCCCCCCCCCCCCCSCC(COC)COP(=O)([O-])OCC[N+](C)(C)C (stereo not drawn) [ilmofosin] | 0.56 | synergism | 20 |  |  | IC50 [3]: 1.06 µg/mL
4 |  | O=c1c(O)c(-c2ccc(O)c(O)c2)oc2cc(O)cc(O)c12 [quercetin, 3,3',4',5,7-pentahydroxyflavone] | 25 | synergism | 25 | 23 | 3.8 | 
5 |  | CN[C@@H]1C[C@H]2O[C@@](C)([C@@H]1OC)n1c3ccccc3c3c4c(c5c6ccccc6n2c5c31)C(=O)NC4 [staurosporin] |  | synergism |  | 0.4 | 0.004 | 
6 |  | CC/C(=C(\c1ccccc1)c1ccc(OCCN(C)C)cc1)c1ccccc1 [tamoxifen] |  | synergism |  |  |  | 
